Where two headings read alike, the source gives them in different places.
How the values were obtained:
[1] = system: SW620 colon cancer cell line; test: Cell growth inhibition, Sulforhodamine B (SRB) assay; format: cell-based; conditions: Homo sapiens, SW-620, 120 h, read-out: Cell Line GI50 Range SW620
Experimental: (§1) Aliquots (20 μl) from each concentration were overlaid to 80 μl of the pre-seeded cells in the 96-plates to make final concentrations of 10 nM to 50 μM. The cells were cultured for 5 days before the Sulforhodamine B (SRB) assay was performed to determine the compound's cell growth inhibition activity.
(§2) Sulforhodamine B (Sigma, Canada) is a water-soluble dye that binds to the basic amino acids of cellular proteins. Thus, colorimetric measurement of the bound dye provides an estimate of the total protein mass that is related to the cell number. The cells are fixed in situ by gently aspirating off the culture media and adding 50 μl ice cold 10% Trichloroacetic Acid (TCA) per well and incubated at 4° C. for 30-60 min. The plates are washed with water five times and allowed to air dry for 5 min. Addition of 50 μl 0.4% (w/v) SRB solution in 1% (v/v) acetic acid to each well and incubatation for […] at RT completes the staining reaction. Following staining, plates are washed four times with 1% acetic acid to remove unbound dye and then allowed to air dry for 5 min. […] Absorbance is read at 570 nm.
(§3) The percentage (%) of relative growth inhibition was calculated by comparing to DMSO-treated only cells (100%). GI50's were determined for compounds with cytotoxic activity. The GI50 was calculated using GraphPad PRISM software (GraphPad Software, Inc., USA).

[2] = system: human mammary epithelial primary cells (HMEC); test: as above; format: cell-based; conditions: 120 h, read-out: Cell Line GI50 Range HMEC
Experimental: as §1, §2, §3

[3] = system: MCF-7 luminal breast cancer cell line; test: as above; format: cell-based; conditions: Homo sapiens, MCF7, 120 h, read-out: Cell Line GI50 Range MCF-7
Experimental: as §1, §2, §3

[4] = system: A549 lung cancer cell line; test: as above; format: cell-based; conditions: Homo sapiens, A549, 120 h, read-out: Cell Line GI50 Range A549
Experimental: as §1, §2, §3

[5] = system: HCC1954 basal breast cancer cell line; test: as above; format: cell-based; conditions: Homo sapiens
Experimental: as §1, §2, §3
The SRB assay described above was used to assay test compounds against the extended panel (Table 6).

[6] = molecular target: IGF1R (Homo sapiens, UniProt P08069); test: Kinase selectivity assay (CEREP, HTRF); format: biochemical; conditions: read-out: % Inhibition at 10 μM Concentration
Chain of IGF1R (P08069 31-1367): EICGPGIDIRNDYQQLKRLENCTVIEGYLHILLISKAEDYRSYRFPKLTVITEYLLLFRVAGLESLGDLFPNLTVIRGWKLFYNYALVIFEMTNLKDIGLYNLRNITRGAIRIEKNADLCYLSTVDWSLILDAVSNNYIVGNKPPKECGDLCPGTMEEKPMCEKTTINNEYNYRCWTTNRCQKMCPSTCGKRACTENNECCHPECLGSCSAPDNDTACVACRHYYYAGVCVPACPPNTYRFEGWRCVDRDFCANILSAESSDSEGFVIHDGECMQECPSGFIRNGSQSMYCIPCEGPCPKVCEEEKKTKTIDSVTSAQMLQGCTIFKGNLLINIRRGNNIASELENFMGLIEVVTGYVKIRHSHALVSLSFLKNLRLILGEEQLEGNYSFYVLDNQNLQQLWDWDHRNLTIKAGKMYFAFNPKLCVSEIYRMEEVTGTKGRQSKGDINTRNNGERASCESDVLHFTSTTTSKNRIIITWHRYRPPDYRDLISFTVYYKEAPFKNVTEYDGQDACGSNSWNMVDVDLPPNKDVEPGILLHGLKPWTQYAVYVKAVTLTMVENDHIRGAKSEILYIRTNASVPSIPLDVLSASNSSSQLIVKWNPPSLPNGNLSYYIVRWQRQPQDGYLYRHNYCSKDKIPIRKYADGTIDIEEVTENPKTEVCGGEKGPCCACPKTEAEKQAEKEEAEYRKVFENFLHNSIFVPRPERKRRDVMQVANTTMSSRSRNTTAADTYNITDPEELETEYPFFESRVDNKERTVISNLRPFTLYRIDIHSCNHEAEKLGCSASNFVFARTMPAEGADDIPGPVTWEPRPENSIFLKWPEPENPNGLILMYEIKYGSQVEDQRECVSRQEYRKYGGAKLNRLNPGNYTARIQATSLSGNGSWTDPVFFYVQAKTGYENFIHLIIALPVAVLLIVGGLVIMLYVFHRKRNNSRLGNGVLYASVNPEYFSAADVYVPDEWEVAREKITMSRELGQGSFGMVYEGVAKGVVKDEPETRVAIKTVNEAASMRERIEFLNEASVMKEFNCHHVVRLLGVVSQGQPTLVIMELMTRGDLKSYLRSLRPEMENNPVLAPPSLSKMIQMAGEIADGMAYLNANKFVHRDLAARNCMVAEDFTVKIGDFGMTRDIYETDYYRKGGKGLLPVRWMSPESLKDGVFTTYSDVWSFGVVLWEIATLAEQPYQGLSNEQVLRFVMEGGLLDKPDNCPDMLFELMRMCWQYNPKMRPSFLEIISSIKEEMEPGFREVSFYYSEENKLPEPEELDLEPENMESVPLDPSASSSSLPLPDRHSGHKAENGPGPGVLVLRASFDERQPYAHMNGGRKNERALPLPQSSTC
Experimental: (§4) The inhibitory activity of selected compounds was evaluated against a panel of 45 different kinase enzymes by CEREP, France. The assays were performed using standard HTRF assay methods as documented by CEREP against the human orthologues of Abl kinase, Akt1/PKBa, AMPKa, BMX kinase (Etk), Brk, CaMK2a, CaMK4, CDC2/CDK1 (cycB), CHK1, CHK2, c-Met kinase, CSK, EphB4 kinase, ERK1, ERK2 (P42mapk), FGFR2 kinase, FGFR4 kinase, FLT-1 kinase (VEGFR1), FLT-3 kinase, Fyn kinase, IGF1R kinase, IRK (InsR), JNK 2, KDR kinase (VEGFR2), Lck kinase, Lyn kinase, MAPKAPK2, MEK1/MAP2K1, p38a kinase, p38d kinase, p38g kinase, PDGFRb kinase, PDK1, PKA, PKCa, PKCb1, PKCb2, PKCg, Ret kinase, ROCK2, RSK2, Src kinase, Syk, and TRKA. The % Inhibition was determined by the formula; % Inhibition=100×(1−(experimental value−background value)/(high activity control−background value)).

[7] = molecular target: Syk (Homo sapiens, UniProt P43405); test: Kinase selectivity assay (CEREP, HTRF); format: biochemical; conditions: read-out: % Inhibition at 10 μM Concentration
Experimental: as §4

[8] = molecular target: PKCbeta 1 (Homo sapiens, UniProt P05771); test: Kinase selectivity assay (CEREP, HTRF); format: biochemical; conditions: read-out: % Inhibition at 10 μM Concentration
Chain of PKCbeta 1 (P05771 whole entry): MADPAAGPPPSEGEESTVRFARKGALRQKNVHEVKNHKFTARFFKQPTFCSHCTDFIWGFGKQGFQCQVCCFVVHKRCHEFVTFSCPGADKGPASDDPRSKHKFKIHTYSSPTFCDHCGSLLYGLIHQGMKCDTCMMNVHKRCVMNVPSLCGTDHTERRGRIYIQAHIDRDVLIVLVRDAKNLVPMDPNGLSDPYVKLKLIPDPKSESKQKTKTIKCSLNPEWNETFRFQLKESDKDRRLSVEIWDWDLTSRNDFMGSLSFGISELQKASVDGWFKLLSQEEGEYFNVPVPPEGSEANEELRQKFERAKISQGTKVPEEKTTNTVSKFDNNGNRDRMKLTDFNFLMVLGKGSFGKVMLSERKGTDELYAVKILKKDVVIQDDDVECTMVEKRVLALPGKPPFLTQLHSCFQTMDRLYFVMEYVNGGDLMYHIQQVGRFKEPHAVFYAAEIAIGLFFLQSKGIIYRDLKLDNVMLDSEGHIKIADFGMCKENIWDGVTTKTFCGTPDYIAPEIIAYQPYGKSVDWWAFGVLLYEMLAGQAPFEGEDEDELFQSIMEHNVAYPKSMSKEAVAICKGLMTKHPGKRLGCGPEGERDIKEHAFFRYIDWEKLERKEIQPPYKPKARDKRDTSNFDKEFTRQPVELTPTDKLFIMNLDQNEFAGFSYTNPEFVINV
Experimental: as §4

[9] = molecular target: Fyn (Homo sapiens, UniProt P06241); test: Kinase selectivity assay (CEREP, HTRF); format: biochemical; conditions: read-out: % Inhibition at 10 μM Concentration
Experimental: as §4

[10] = molecular target: BMX (Etk) (Homo sapiens, UniProt P51813); test: Kinase selectivity assay (CEREP, HTRF); format: biochemical; conditions: read-out: % Inhibition at 10 μM Concentration
Chain of BMX (Etk) (P51813 whole entry): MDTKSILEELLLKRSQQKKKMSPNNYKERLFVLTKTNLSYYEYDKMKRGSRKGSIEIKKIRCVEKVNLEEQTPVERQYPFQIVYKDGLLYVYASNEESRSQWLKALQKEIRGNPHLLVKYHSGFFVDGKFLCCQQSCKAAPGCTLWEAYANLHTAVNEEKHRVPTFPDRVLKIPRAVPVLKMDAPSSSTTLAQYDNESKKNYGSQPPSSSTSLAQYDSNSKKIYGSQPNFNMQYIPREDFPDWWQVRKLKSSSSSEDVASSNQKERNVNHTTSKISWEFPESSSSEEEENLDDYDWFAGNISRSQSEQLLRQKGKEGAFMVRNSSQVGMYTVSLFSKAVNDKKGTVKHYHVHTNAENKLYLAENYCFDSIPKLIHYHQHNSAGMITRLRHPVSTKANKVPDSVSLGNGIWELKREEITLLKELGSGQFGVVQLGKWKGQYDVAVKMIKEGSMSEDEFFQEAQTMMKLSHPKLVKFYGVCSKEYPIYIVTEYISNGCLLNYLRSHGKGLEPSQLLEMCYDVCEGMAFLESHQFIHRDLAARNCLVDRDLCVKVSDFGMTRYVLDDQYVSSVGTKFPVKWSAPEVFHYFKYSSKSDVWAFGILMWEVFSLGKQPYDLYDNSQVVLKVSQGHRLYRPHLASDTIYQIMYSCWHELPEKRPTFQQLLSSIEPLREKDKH
Experimental: as §4

[11] = molecular target: CHK2 (Homo sapiens, UniProt O96017); test: Kinase selectivity assay (CEREP, HTRF); format: biochemical; conditions: read-out: % Inhibition at 10 μM Concentration
Experimental: as §4

[12] = molecular target: RSK2 (Homo sapiens, UniProt P51812); test: Kinase selectivity assay (CEREP, HTRF); format: biochemical; conditions: read-out: % Inhibition at 10 μM Concentration
Experimental: as §4

[13] = molecular target: Brk (Homo sapiens, UniProt Q13882); test: Kinase selectivity assay (CEREP, HTRF); format: biochemical; conditions: read-out: % Inhibition at 10 μM Concentration
Experimental: as §4

[14] = molecular target: ERK1 (Homo sapiens, UniProt P27361); test: Kinase selectivity assay (CEREP, HTRF); format: biochemical; conditions: read-out: % Inhibition at 10 μM Concentration
Experimental: as §4

[15] = molecular target: CDC2/CDK1 (Homo sapiens, UniProt P06493); test: Kinase selectivity assay (CEREP, HTRF); format: biochemical; conditions: read-out: % Inhibition at 10 μM Concentration
Experimental: as §4

[16] = molecular target: CSK (Homo sapiens, UniProt P41240); test: Kinase selectivity assay (CEREP, HTRF); format: biochemical; conditions: read-out: % Inhibition at 10 μM Concentration
Experimental: as §4

[17] = molecular target: FLT-1 (VEGFR1) (Homo sapiens, UniProt P17948); test: Kinase selectivity assay (CEREP, HTRF); format: biochemical; conditions: read-out: % Inhibition at 10 μM Concentration
Experimental: as §4

[18] = molecular target: EphB4 (Homo sapiens, UniProt P54760); test: Kinase selectivity assay (CEREP, HTRF); format: biochemical; conditions: read-out: % Inhibition at 10 μM Concentration
Chain of EphB4 (P54760 16-987): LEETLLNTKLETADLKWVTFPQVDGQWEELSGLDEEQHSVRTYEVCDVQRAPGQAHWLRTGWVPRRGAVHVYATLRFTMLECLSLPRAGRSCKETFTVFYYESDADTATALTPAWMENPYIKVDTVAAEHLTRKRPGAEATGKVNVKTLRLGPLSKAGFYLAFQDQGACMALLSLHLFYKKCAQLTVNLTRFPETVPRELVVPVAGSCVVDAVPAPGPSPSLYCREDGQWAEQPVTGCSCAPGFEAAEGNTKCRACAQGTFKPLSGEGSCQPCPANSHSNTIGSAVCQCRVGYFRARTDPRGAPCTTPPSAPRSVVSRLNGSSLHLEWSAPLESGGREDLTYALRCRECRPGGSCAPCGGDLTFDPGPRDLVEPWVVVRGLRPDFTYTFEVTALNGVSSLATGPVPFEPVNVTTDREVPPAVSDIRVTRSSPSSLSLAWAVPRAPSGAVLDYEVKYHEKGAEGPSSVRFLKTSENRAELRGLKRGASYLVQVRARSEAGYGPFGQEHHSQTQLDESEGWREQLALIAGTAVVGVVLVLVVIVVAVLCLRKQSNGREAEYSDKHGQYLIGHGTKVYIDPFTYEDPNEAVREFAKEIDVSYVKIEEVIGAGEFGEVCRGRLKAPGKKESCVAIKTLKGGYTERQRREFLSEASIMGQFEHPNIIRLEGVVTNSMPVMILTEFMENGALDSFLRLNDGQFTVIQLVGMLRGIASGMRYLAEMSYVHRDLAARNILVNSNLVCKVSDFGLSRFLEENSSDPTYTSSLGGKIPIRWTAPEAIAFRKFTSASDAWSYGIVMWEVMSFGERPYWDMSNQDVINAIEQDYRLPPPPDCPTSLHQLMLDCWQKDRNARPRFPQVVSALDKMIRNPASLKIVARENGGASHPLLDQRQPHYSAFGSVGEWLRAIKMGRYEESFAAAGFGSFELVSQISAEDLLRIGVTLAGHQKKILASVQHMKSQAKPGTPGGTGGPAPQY
Experimental: as §4

[19] = molecular target: PKCbeta 2 (Homo sapiens, UniProt P05771); test: Kinase selectivity assay (CEREP, HTRF); format: biochemical; conditions: read-out: % Inhibition at 10 μM Concentration
Chain of PKCbeta 2 (P05771 1-673 isoform P05771-2): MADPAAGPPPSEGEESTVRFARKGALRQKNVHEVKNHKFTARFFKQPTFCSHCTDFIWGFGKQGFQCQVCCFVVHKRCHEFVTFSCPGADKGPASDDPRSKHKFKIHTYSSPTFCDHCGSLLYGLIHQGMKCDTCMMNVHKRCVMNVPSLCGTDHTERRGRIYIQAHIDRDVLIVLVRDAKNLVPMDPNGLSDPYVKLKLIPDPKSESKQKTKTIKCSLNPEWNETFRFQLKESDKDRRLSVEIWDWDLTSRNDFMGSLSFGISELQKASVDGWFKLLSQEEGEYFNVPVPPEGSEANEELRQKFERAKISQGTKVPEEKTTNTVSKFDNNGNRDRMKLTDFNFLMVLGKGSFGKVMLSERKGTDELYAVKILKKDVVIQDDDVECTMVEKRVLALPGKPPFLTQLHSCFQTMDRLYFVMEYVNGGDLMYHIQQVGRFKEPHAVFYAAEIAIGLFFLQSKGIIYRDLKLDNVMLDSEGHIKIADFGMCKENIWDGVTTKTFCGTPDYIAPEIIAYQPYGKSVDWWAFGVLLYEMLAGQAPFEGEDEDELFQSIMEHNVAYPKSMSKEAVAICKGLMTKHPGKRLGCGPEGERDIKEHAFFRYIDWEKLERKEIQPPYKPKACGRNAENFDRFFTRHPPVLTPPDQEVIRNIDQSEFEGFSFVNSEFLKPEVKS
Experimental: as §4

[20] = molecular target: p38gamma (Homo sapiens, UniProt P53778); test: Kinase selectivity assay (CEREP, HTRF); format: biochemical; conditions: read-out: % Inhibition at 10 μM Concentration
Experimental: as §4

[21] = molecular target: CaMK4 (Homo sapiens, UniProt Q16566); test: Kinase selectivity assay (CEREP, HTRF); format: biochemical; conditions: read-out: % Inhibition at 10 μM Concentration
Chain of CaMK4 (Q16566 whole entry): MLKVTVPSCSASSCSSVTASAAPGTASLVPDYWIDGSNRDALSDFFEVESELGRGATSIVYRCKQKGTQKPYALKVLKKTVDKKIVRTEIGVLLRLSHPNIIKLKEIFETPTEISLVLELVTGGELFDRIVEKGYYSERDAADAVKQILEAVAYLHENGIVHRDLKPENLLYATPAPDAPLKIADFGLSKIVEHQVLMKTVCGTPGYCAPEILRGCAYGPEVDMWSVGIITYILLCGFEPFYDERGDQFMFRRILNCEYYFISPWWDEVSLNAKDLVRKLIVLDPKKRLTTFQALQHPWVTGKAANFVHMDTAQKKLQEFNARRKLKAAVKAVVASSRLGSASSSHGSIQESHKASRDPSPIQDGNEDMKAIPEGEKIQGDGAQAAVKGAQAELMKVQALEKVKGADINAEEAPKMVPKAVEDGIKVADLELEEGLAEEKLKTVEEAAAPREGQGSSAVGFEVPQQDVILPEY
Experimental: as §4

[22] = molecular target: CHK1 (Homo sapiens, UniProt O14757); test: Kinase selectivity assay (CEREP, HTRF); format: biochemical; conditions: read-out: % Inhibition at 10 μM Concentration
Experimental: as §4

[23] = molecular target: Abl kinase (Homo sapiens, UniProt P00519); test: Kinase selectivity assay (CEREP, HTRF); format: biochemical; conditions: read-out: % Inhibition at 10 μM Concentration
Experimental: as §4

[24] = molecular target: PDGFRbeta (Homo sapiens, UniProt P09619); test: Kinase selectivity assay (CEREP, HTRF); format: biochemical; conditions: read-out: % Inhibition at 10 μM Concentration
Experimental: as §4

[25] = molecular target: CaMK2alpha (Homo sapiens, UniProt Q9UQM7); test: Kinase selectivity assay (CEREP, HTRF); format: biochemical; conditions: read-out: % Inhibition at 10 μM Concentration
Experimental: as §4

[26] = molecular target: IRK (InsR) (Homo sapiens, UniProt P06213); test: Kinase selectivity assay (CEREP, HTRF); format: biochemical; conditions: read-out: % Inhibition at 10 μM Concentration
Experimental: as §4

[27] = molecular target: PKCalpha (Homo sapiens, UniProt P17252); test: Kinase selectivity assay (CEREP, HTRF); format: biochemical; conditions: read-out: % Inhibition at 10 μM Concentration
Experimental: as §4

[28] = HCC1954, 120 h, read-out: Cell Line GI50 Range HCC1954

SMILES	GI50 [1]	GI50 [2]	GI50 [3]	GI50 [4]	GI50 [5, 28]	inhibition at 10 µM [9]	inhibition at 10 µM [10]	inhibition at 10 µM ([6]; IGF1R, 10 μM)	inhibition at 10 µM [11]	inhibition at 10 µM [12]	inhibition at 10 µM [13]	inhibition at 10 µM [14]	inhibition at 10 µM [15]	inhibition at 10 µM [16]	inhibition at 10 µM [17]	inhibition at 10 µM [18]	inhibition at 10 µM [19]	inhibition at 10 µM [20]	inhibition at 10 µM [21]	inhibition at 10 µM [22]	further results
COc1ccc2c(c1)[C@@]1(C[C@@H]1c1ccc3c(-c4ccc(N5CCN(C)CC5)nc4)n[nH]c3c1)C(=O)N2 (racemic) [Compound 2]	< 5 µM	20 to 50 µM	< 5 µM	< 5 µM	< 5 µM	–	–	–	–	–	–	–	–	–	–	–	–	–	–	–	inhibition at 10 µM [6]: -3%; inhibition at 10 µM [7]: -1%; inhibition at 10 µM [8]: -2%
COc1ccc2c(c1)/C(=C\c1ccc3c(/C=C/c4ccc(N5CCN(C)CC5)nc4)n[nH]c3c1)C(=O)N2 [Compound 3]	–	–	–	–	–	4%	0%	5%	-4%	-4%	-2%	2%	11%	6%	30%	-1%	4%	12%	6%	0%	GI50 ([5]; HCC1954, read-out: GI50 Range HCC1954): < 5 µM; inhibition at 10 µM ([7]; Syk, 10 μM): -1%; inhibition at 10 µM ([8]; PKCbeta 1, 10 μM): 1%; inhibition at 10 µM [23]: 23%; inhibition at 10 µM [24]: 14%; inhibition at 10 µM [25]: 2%; inhibition at 10 µM [26]: 2%; inhibition at 10 µM [27]: 7%
CN(C)Cc1ccc(/C=C/c2n[nH]c3cc([C@H]4C[C@@]45C(=O)Nc4ccccc45)ccc23)cc1 (racemic) [Compound 35]	< 5 µM	5 to 20 µM	< 5 µM	< 5 µM	< 5 µM	55%	39%	0%	-3%	22%	53%	1%	60%	75%	30%	65%	26%	-5%	-4%	43%	inhibition at 10 µM ([8]; PKCbeta 1, 10 μM): -2%; inhibition at 10 µM [23]: 100%; inhibition at 10 µM [24]: 59%; inhibition at 10 µM [25]: 9%; inhibition at 10 µM [26]: 5%; inhibition at 10 µM [27]: 6%
